From US6248718A, “Lesion-directed dry dosage forms of antibacterial agents for the treatment of acute mucosal infections of the oral cavity” (priority 1999, dated 2001)
In brackets after ≈: the same amount, converted by molar mass.

Tests used:
[1] = tested on: Staphylococcus aureus ATCC 29213; assay: MIC for standard strain used in saliva antibiotic assay (Examples VII-IX); format: cell-based; settings: nutrient broth, 37° C., 18 hours
Method: Each filtered mixture in test tube was inoculated with 0.1 ml of a 1:1,000 dilution of a 12 hour broth culture of Staphylococcus aureus ATCC 29213.
A row of 6 test tubes each containing 2 ml of nutrient broth with decreasing concentrations of penicillin G potassium from 6.2 to 0.16 mcg/ml, using a serial double dilution method described in a., was prepared and similarly inoculated with 0.1 ml broth culture of Staphylococcus aureus ATCC 29213 as the standard.
All test tubes were incubated at 37° C. for 18 hours and observed for bacterial growth against an inoculated broth containing neither antibiotic nor saliva samples.
In this study, the drug powder was suspended in one teaspoonful of water and swallowed by the test subjects two hours after breakfast, followed by drinking an 8 Oz. glass of water. The test subjects refrained from drinking or eating for the next three hours. Six samples of saliva were collected from each subject at 30-minute intervals in succession in the next three hours. An aliquot of 0.2 ml from each saliva sample was transferred to 3.8 ml of nutrient broth. The mixture of the latter was forced to pass a bacterial filter. Two (2) ml of the bacteria-free filtrate was pipetted out into a sterile test tube and inoculated with 0.1 ml of a 1:1,000 dilution of a 12 hours broth culture of Staphylococcus aureus ATCC 29213 and incubated at 37° C. for 18 hours. […]

[2] = Topical treatment of patients with aphthous ulcers with troches; format: in vivo, human
Method: Patients with aphthous ulcers were advised to brush their teeth to rid them of food residues, and to rinse their mouths with water prior to initiating treatment. One penicillin/magnesium stearate troche was placed in the patients mouths directly over the ulcerated lesion. The troche was dissolved or disintegrated in a minimum amount of saliva directly over the ulcer in no more than 15 minutes, preferably in about 8 to about 12 minutes. The patients were advised to keep the ingredients of the disintegrated troche at the site of the lesion as long as possible. Food and beverages were avoided for one hour after each treatment. If multiple aphthous ulcers were present, only one troche is required for the treatment of a cluster of small ulcers. The topical treatments were conducted 4 times daily, for example, after breakfast, after lunch, after dinner and before bed time for no more than 4 days. […] The burning sensation lessened with subsequent applications.
For instance, the first sign of healing is usually the fading of the hyperemic zone at the periphery of the ulcer and the lessening of edema at the base of the ulcer. The membrane covering the ulcer becomes thinner, more translucent, more pearly white instead of a grayish-yellowish white prior to the application and contract with the troche. […]

[3] = Local concentration of penicillin in saliva after a troche containing 50 mg penicillin G; format: in vivo, human
Method: The local concentration of penicillin in the saliva was determined as follows. […] This loculated pocket of saliva was not swallowed and was not to be diluted with excess saliva from other parts of the mouth for one hour. Two samples were taken for assay to determine the peak and trough local concentrations of penicillin during the one-hour duration of medicinal treatment. At the time when the troche was completely dissolved and one hour later, aliquots of 10 microliters were pipetted from this pocket of saliva solution at the site of medication, representing the peak level and the trough level of antibiotic concentration, and transferred into 10 ml of distilled water to make a 1:1.000 dilution and into 1 ml of distilled water to make a 1:100 dilution, respectively. The diluted saliva antibiotic solutions were passed through a sterile bacteria-filter to remove any bacterial or fungal contaminants of the oral flora.
For determination of the peak concentration, 1 ml of the bacteria-free filtrate was further diluted with 9 ml of nutrient broth to achieve a 1:10,000 dilution of the saliva. Then a serial two-fold dilution was made of this 1:10,000 diluted saliva sample with an equal volume of nutrient broth in a roll of test tubes to obtain a series of 1 ml aliquots of nutrient broth in which the saliva was diluted to 20,000, 40,000, 80,000, 160,000, 320,000, 640,000, 1,280,000 and 2,560,000 folds respectively. […] Thus the final dilutions of the saliva sample were in the range of 40,000 to 5,120,000 folds.
For determining the trough concentration, the entire 1 ml of the 1:100 diluted saliva filtrate was used to make the serial dilutions so that the final dilutions of saliva sample were in the range of 4,000 to 256,000 folds in the final test culture.
As control standards, a series of test tubes containing 1 ml of nutrient broth with varying concentrations of penicillin G potassium salt ranging from 0.1 units to 10 units/ml were similarly mixed with an equal volume of nutrient broth freshly inoculated with the standard tubes of Staphylococcus aureus. Both the test and control standard tubes were incubated at 37° C. for 18 hours. Among the test tubes showing no gross evidence of bacterial growth, the one containing the highest dilution of saliva and the one containing the least amount of penicillin G were considered as having the identical concentration of penicillin, i.e. the MIC of the staphylococcus aureus.

bacteria in human saliva = assay: Inhibition of bacterial growth in human saliva in vitro (Example IV); format: cell-based
Method: For this study, five healthy adult volunteers, three men and two women, were asked to refrain from drinking and eating for two hours after breakfast. At the end of two hours, about five (5) ml of saliva was obtained from the oral cavity of each volunteer. Aliquots of 0.1 ml of saliva were pipetted immediately from each saliva sample and spread over the surface of two 5% sheep blood agar plates with a sterile plastic loop. One inoculated blood agar plate was incubated in an aerobic atmosphere containing 5% CO2, and the other anaerobically at 37° C. for 18 hours, as untreated controls.
Aliquots of 0.2 ml of the saliva from each volunteer's sample were pipetted into sterile test tubes, and labeled from No. 2 to No. 13. Five equal doses of dry powder of the USP grade penicillin G potassium salt, 200 mg each, were weighed and put into five sterile test tubes, all labeled No. 1. The dry powder of antibiotic was dissolved in 0.4 ml saliva obtained from each of the five volunteers to constitute an initial concentration of antibiotic concentration of […] in saliva. An aliquot of 0.2 ml of the saliva antibiotic solution was pipetted from tube No. 1 into tube No. 2. After having been thoroughly mixed, 0.2 ml of the content in tube No. 2 was pipetted to tube No. 3, and so forth continuously in succession to make a serial double dilution of penicillin G potassium solutions in saliva through tube No. 13. Finally, the test tubes contained different concentrations of penicillin G potassium in the saliva of five volunteers, as follows.
The mixtures of antibiotic and saliva in the test tubes were incubated at 37° C. One hour later, an aliquot of 0.1 ml was pipetted from the content of each tube, first dropped in the center of a blood agar plate and then spread to the periphery of the plate surface. The plates were incubated aerobically at 37° C. with 5% carbon dioxide in the atmosphere for 18 hours and were examined for bacterial growth.

[4] = tested on: Staphylococcus aureus (ATCC 29213); settings: standard strain; cited from earlier work
[5] = earlier treatments of oral infections / aphthous ulcers; cited from earlier work
[6] = tested on: bacteria in saliva of healthy volunteers; assay: Inhibition of bacterial growth in the saliva in vivo (Example V); settings: in theory, 0.1 ml saliva
Method: Five healthy adult volunteers, three men and two women, were asked to refrain from drinking or eating for two hours after breakfast. At the end of two hours, an aliquot of 0.1 ml of saliva was pipetted from the mouth of each volunteer and spread over the surface of a sheep blood agar plate with a sterile plastic loop. The inoculated blood agar plate was incubated in an aerobic atmosphere containing 5% CO2 as pre-medication control. Then 100 mg, 50 mg, 20 mg, 10 mg and 2 mg of penicillin G potassium dry powder, USP grade, were placed in the right buccal pouch with a spatula between the cheek and the lower gum of each volunteer, respectively. The volunteers were asked to retain the dissolved penicillin powder at the site of medication as concentrated as possible, not to be diluted by saliva from other parts of the mouth for one hour.
At the end of one hour, 0.1 ml of saliva from each volunteer was pipetted from the right buccal pouch where the medication was placed, and inoculated and spread onto the surface of a sheep blood agar plate. The inoculum was spread with a sterile plastic loop.

[7] = tested on: Gram-negative bacilli (Salmonella, Shigella, most Escherichia coli strains, all Proteus mirabilis strains and most Bacteroides strains); settings: in vitro; cited from earlier work
[8] = tested on: Staphylococcus aureus (ATCC 29213); assay: MIC for standard strain used in saliva antibiotic assay (Examples I, II); format: cell-based; settings: nutrient broth, 37° C., 18 hours
Text: The final concentrations of oxytetracycline in the control standard nutrient broth were 0.25 mcg/ml, 0.5 mcg/ml, 1.0 mcg/ml, 2.0 mcg/ml, 4.0 mcg/ml, and 8.0 mcg/ml. The final dilutions of saliva sample were 1/50,000, 1/100,000, 1/200,000, 1/400,000, 1/800,000 and 1/1,600,000 for the peak concentration test tubes and 1/4,000. 1/8,000, 1/16,000 and 1/32,000 for the trough concentration test tubes. The Staphylococcus aureus (ATCC 29213) was also used as the standard test microorganism.

[9] = intravenous injection of 500 mg penicillin G; cited from earlier work

Row | Structure (SMILES) | concentration at which bacteria grew to full turbidity [1] [µg/mL] | adverse reactions ([2]; 4 days of penicillin medication) | state of ulcer membrane ([2]; after 4 days of penicillin medication) | initial concentration at the ulcer ([3]; assuming troche is dissolved in 0.1 ml of saliva) | local trough concentration in saliva ([3]; human, in vivo, 60 min) | concentration at 1 h ([3]; human, saliva, 50 mg, 50 mg troche, end of one hour, read-out: local trough concentration in saliva) [µg/mL] | MIC / concentration inhibiting growth of oral flora in saliva (bacteria in human saliva; in vitro, aerobic) [µg/mL] | known minimum inhibitory concentration (MIC) [4] | effectiveness of treatment [5] | theoretical dose sufficient for initial topical MIC concentration of 2 mg/ml [6] [mg] | cut-off minimum inhibition concentration at which many Gram-negative bacilli fall into sensitive category [7] [µg/mL] | MIC [8] [unit/ml] | bactericidal effect (bacteria in human saliva; 1 mg/ml, one hour's incubation) | MIC (bacteria in human saliva; Homo sapiens, read-out: MIC / concentration inhibiting growth of oral flora in saliva) [µg/mL] | average peak blood level [9]
1 | CC1(C)S[C@@H]2[C@H](NC(=O)Cc3ccccc3)C(=O)N2[C@H]1C(=O)O [penicillin] | ≤ 0.37 | no observed adverse reactions of stomatitis or discoloration of the tongue | only remnants of a thin pearly whitish membrane remain, if any | up to 500 mg/ml | about 12,000 Units per 1 ml saliva | ~7500 | 2000 | 0.25-2 units/mi | ineffective |  |  |  |  |  | 
2 | CC1(C)S[C@@H]2[C@H](NC(=O)Cc3ccccc3)C(=O)N2[C@H]1C(=O)O [penicillin G] |  |  |  |  |  |  |  |  |  | 0.2 | ≤ 740 | 1 | not "bactericidal" within one hour's incubation time | 2000 (≈ 5.98 mM) | 16 mcg/ml and about 16 mcg/ml and about 26 units/mi
